Experimental data as given in PubChem BioAssay AID192 (DTP/NCI, 2004).
Where “and” joins values, the source holds several entries; their conditions need not be identical. Equal values may be shown once. Inconclusive results and toxic doses are left out.

Tested on: BDF1 mice, B16 melanoma ip, median survival T/C
Assay: NCI In Vivo Anticancer Drug Screen. Data for tumor model B16 Melanoma (intraperitoneal) in B6D2F1 (BDF1) mice
Conditions: endpoint: median survival time, higher = longer survival
Method: The antitumor activity of compounds was measured in mice bearing transplantable tumors. Survival or tumor size were measured and the results are expressed as the measurement made in the treated group (T) divided by the measurement made in the vehicle treated control group (C). The tumor model used in this assay is B16 Melanoma (intraperitoneal) in B6D2F1 (BDF1) mice

[1] = dose: 6.25 mg/kg/injection, schedule: Q01DX009 (ip), vehicle: Klucel (hydroxypropylcellulose) (HPC)
[2] = dose: 12.5 mg/kg/injection, schedule: Q01DX009 (ip), vehicle: Klucel (hydroxypropylcellulose) (HPC)
[3] = dose: 25.0 mg/kg/injection, schedule: Q01DX009 (ip), vehicle: Klucel (hydroxypropylcellulose) (HPC)
[4] = dose: 1.56 mg/kg/injection, schedule: Q01DX009 (ip), vehicle: saline
[5] = dose: 3.12 mg/kg/injection, schedule: Q01DX009 (ip), vehicle: saline
[6] = dose: 6.25 mg/kg/injection, schedule: Q01DX009 (ip), vehicle: saline
[7] = dose: 12.5 mg/kg/injection, schedule: Q01DX009 (ip), vehicle: saline
[8] = dose: 25.0 mg/kg/injection, schedule: Q01DX009 (ip), vehicle: saline
[9] = dose: 25.0 mg/kg/injection, schedule: Q01DX009 (ip), vehicle: saline with Tween-80
[10] = dose: 50.0 mg/kg/injection, schedule: Q01DX009 (ip), vehicle: saline with Tween-80
[11] = dose: 100.0 mg/kg/injection, schedule: Q01DX009 (ip), vehicle: saline with Tween-80
[12] = dose: 100.0 mg/kg/injection, schedule: Q04DX003 (ip), vehicle: saline with Tween-80
[13] = dose: 200.0 mg/kg/injection, schedule: Q01DX009 (ip), vehicle: saline with Tween-80
[14] = dose: 200.0 mg/kg/injection, schedule: Q04DX003 (ip), vehicle: saline with Tween-80
[15] = dose: 100.0 mg/kg/injection, schedule: Q04DX003 (ip), vehicle: Klucel (hydroxypropylcellulose) (HPC)
[16] = dose: 200.0 mg/kg/injection, schedule: Q04DX003 (ip), vehicle: Klucel (hydroxypropylcellulose) (HPC)
[17] = dose: 400.0 mg/kg/injection, schedule: Q04DX003 (ip), vehicle: Klucel (hydroxypropylcellulose) (HPC)
[18] = dose: 50.0 mg/kg/injection, schedule: Q01DX009 (ip), vehicle: Klucel (hydroxypropylcellulose) (HPC)
[19] = dose: 100.0 mg/kg/injection, schedule: Q01DX009 (ip), vehicle: Klucel (hydroxypropylcellulose) (HPC)
[20] = dose: 200.0 mg/kg/injection, schedule: Q01DX009 (ip), vehicle: Klucel (hydroxypropylcellulose) (HPC)
[21] = dose: 400.0 mg/kg/injection, schedule: Q01DX009 (ip), vehicle: Klucel (hydroxypropylcellulose) (HPC)
[22] = dose: 50.0 mg/kg/injection, schedule: Q01DX009 (ip), vehicle: saline

O=C(N/N=C\c1ccc(N(CCCl)CCCl)cc1)c1cccnc1 was tested, and the T/C (dose: 100.0 mg/kg/injection, schedule: Q01DX009 (ip), vehicle: gum acacia) was 91 % of control, the T/C (dose: 200.0 mg/kg/injection, schedule: Q01DX009 (ip), vehicle: gum acacia) was 102 % of control and the T/C (dose: 400.0 mg/kg/injection, schedule: Q01DX009 (ip), vehicle: gum acacia) was 102 % of control.
C=CCOCC(O)CN(CC(C)C)CC(C)C (stereo unspecified) was tested, and the T/C [1] was 98 % of control, the T/C [2] was 104 % of control and the T/C [3] was 100 % of control.
For CC(C(=O)O)C(NC(=O)OCc1ccccc1)C(=O)O (stereo unspecified), the T/C (dose: 100.0 mg/kg/injection, schedule: Q04DX003 (ip), vehicle: other) was 97 % of control and the T/C (dose: 200.0 mg/kg/injection, schedule: Q04DX003 (ip), vehicle: other) was 89 % of control.
CN1C2CCC1CC(OC(c1ccccc1)c1ccccc1)C2 (stereo unspecified) was tested, and the T/C [4] was 102 % of control, the T/C [5] was 107 % of control and the T/C [6] was 107 % of control. The T/C [7] was 110 % of control and the T/C [8] was 107 % of control.
In the case of CCCCCc1ccc(C(=O)O)cc1, the T/C [9] is reported as 105 % of control, the T/C [10] is reported as 102 % of control and the T/C [11] is reported as 111 % of control.
CC1=CC(=O)c2ccccc2C1=O was tested, and the T/C [9] was 108 % of control and 118 % of control.
In the case of CCOC(=O)C(=CN1CCCCCC1)C(=O)OCC, the T/C [11] is reported as 102 % of control, the T/C [12] is reported as 97 % of control and the T/C [13] is reported as 101 % of control. For the same molecule, the T/C [14] was 95 % of control and the T/C (dose: 400.0 mg/kg/injection, schedule: Q04DX003 (ip), vehicle: saline with Tween-80) was 92 % of control.
With NC(=O)CC(NC(=O)OCc1ccccc1)C(N)=O (stereo unspecified) the T/C [15] was 100 % of control, the T/C [16] was 87 % of control and the T/C [17] was 87 % of control.
CCC(c1ccc(OC(=O)Cc2ccc(N(CCCl)CCCl)cc2)cc1)C(CC)c1ccc(OC(=O)Cc2ccc(N(CCCl)CCCl)cc2)cc1 (stereo unspecified) was tested, and the T/C [1] was 106 % of control, the T/C [2] was 110 % of control and the T/C [3] was 96 % of control. For the same molecule, the T/C [18] was 88 % of control, the T/C (dose: 64.0 mg/kg/injection, schedule: Q02DX009 (ip), vehicle: saline with Tween-80) was 95 % of control and 98 % of control and the T/C (dose: 128.0 mg/kg/injection, schedule: Q02DX009 (ip), vehicle: saline with Tween-80) was 91 % of control. The T/C (dose: 256.0 mg/kg/injection, schedule: Q02DX009 (ip), vehicle: saline with Tween-80) was 92 % of control.
For C[N+](C)(C)CCCC1C2CCC(C2)C1C[N+](C)(C)C (stereo unspecified), the T/C [7] was 110 % of control and the T/C [8] was 110 % of control.
For O=C1NC(c2ccc3ccccc3c2)Nc2ccccc21 (stereo unspecified), the T/C [19] was 96 % of control, the T/C [20] was 103 % of control and the T/C [21] was 90 % of control.
In the case of COc1cccc2c1C(=N)c1c(O)c3c(c(O)c1C2=O)C[C@@](O)(C(=O)CO)C[C@@H]3OC1CC(N)C(O)C(C)O1 (stereo partly specified), the T/C (dose: 25.0 mg/kg/injection, schedule: Q01DX001 (ip), vehicle: water) is reported as 230 % of control, the T/C (dose: 50.0 mg/kg/injection, schedule: Q01DX001 (ip), vehicle: water) is reported as 292 % of control and the T/C (dose: 100.0 mg/kg/injection, schedule: Q01DX001 (ip), vehicle: water) is reported as 307 % of control.
In the case of C=C(C)C12CC(COC(=O)c3ccccc3)C34OC5(OC1C3C1OC1(CO)C(O)C1(O)C(OC(=O)c3ccccc3)C(C)C(C(C)CCCCCCC5O)C14)O2 (stereo unspecified), the T/C (dose: 3.8 micrograms/kg/injection, schedule: Q01DX009 (ip), vehicle: saline with Tween-80) is reported as 93 % of control and the T/C (dose: 7.5 micrograms/kg/injection, schedule: Q01DX009 (ip), vehicle: saline with Tween-80) is reported as 97 % of control.
With C=C(NC(C)=O)C(=O)CCC(N)=O the T/C (dose: 5.0 mg/kg/injection, schedule: Q01DX009 (ip), vehicle: saline) was 92 % of control, the T/C (dose: 10.0 mg/kg/injection, schedule: Q01DX009 (ip), vehicle: saline) was 102 % of control and the T/C (dose: 20.0 mg/kg/injection, schedule: Q01DX009 (ip), vehicle: saline) was 97 % of control.
With CCCNCCCN the T/C [7] was 102 % of control, the T/C [8] was 105 % of control and the T/C [22] was 89 % of control.
OCCOCCN1CCN(C(c2ccccc2)c2ccc(Cl)cc2)CC1 (stereo unspecified) was tested, and the T/C [5] was 97 % of control, the T/C [6] was 102 % of control and the T/C [7] was 105 % of control. For the same molecule, the T/C [8] was 97 % of control, the T/C [22] was 100 % of control and the T/C (dose: 100.0 mg/kg/injection, schedule: Q01DX009 (ip), vehicle: saline) was 102 % of control.
For Cc1c(N=CN(C)C)c(=O)n(-c2ccccc2)n1C, the T/C (dose: 97.0 mg/kg/injection, schedule: Q04DX003 (ip), vehicle: Klucel (hydroxypropylcellulose) (HPC)) was 97 % of control, the T/C (dose: 187.5 mg/kg/injection, schedule: Q04DX003 (ip), vehicle: Klucel (hydroxypropylcellulose) (HPC)) was 105 % of control and the T/C (dose: 375.0 mg/kg/injection, schedule: Q04DX003 (ip), vehicle: Klucel (hydroxypropylcellulose) (HPC)) was 87 % of control.
With Cc1ccc(NC(=O)c2ccccc2)c(C)c1 the T/C [10] was 95 % of control, the T/C (dose: 50.0 mg/kg/injection, schedule: Q04DX003 (ip), vehicle: saline with Tween-80) was 97 % of control and the T/C [11] was 105 % of control. For the same molecule, the T/C [12] was 100 % of control, the T/C [13] was 92 % of control and the T/C [14] was 90 % of control.
With CS(=O)(=O)Nc1ccccc1N the T/C [4] was 95 % of control, the T/C [5] was 99 % of control and the T/C [6] was 98 % of control.
With Cc1ccc2c(c1)P(=O)(O)c1cc(Cl)ccc1O2 the T/C (dose: 86.4 mg/kg/injection, schedule: Q01DX009 (ip), vehicle: water) was 100 % of control, the T/C (dose: 144.0 mg/kg/injection, schedule: Q01DX009 (ip), vehicle: water) was 94 % of control and the T/C (dose: 240.0 mg/kg/injection, schedule: Q01DX009 (ip), vehicle: water) was 101 % of control. The T/C (dose: 259.0 mg/kg/injection, schedule: Q04DX003 (ip), vehicle: water) was 123 % of control, the T/C (dose: 400.0 mg/kg/injection, schedule: Q01DX009 (ip), vehicle: water) was 98 % of control and the T/C (dose: 432.0 mg/kg/injection, schedule: Q04DX003 (ip), vehicle: water) was 88 % of control.
With CCC(N)CC the T/C [8] was 102 % of control and the T/C [22] was 117 % of control.
For OC(CC(O)(C(F)(F)F)C(F)(F)F)c1cccc(Cl)c1 (stereo unspecified), the T/C (dose: 50.0 mg/kg/injection, schedule: Q04DX003 (ip), vehicle: gum acacia) was 105 % of control, the T/C (dose: 100.0 mg/kg/injection, schedule: Q04DX003 (ip), vehicle: gum acacia) was 90 % of control and the T/C (dose: 200.0 mg/kg/injection, schedule: Q04DX003 (ip), vehicle: gum acacia) was 90 % of control.
With Cc1cc(N(CCOS(C)(=O)=O)CCOS(C)(=O)=O)ccc1C=Nc1ccc(-c2nc(Cc3ccccc3)sc2C)cc1 the T/C [3] was 165 % of control, the T/C [18] was 174 % of control and the T/C [19] was 107 % of control.
In the case of CC(=O)N/C(=C/c1ccccc1)C(=O)O, the T/C [19] is reported as 94 % of control, the T/C [15] is reported as 93 % of control and the T/C [20] is reported as 108 % of control. For the same molecule, the T/C [16] was 86 % of control, the T/C [21] was 97 % of control and the T/C [17] was 90 % of control.
